In patent US10071954B2, “Hydrogen peroxide-activated compounds as selective anti-cancer therapeutics” (University of Cincinnati, priority 2014, dated 2018):
Where two headings read alike, the source gives them in different places. One block for each compound: values may come before it.

How the values were obtained:
[1] = Oxidation of compound 1 to 2 in PBS, HPLC analysis; format: physicochemical
Experimental: To mimic cellular addition, 1 was incubated in PBS with limiting N-acetylcysteine and the products were analyzed by HPLC (FIG. 3C). The limiting N-acetylcysteine was necessary due to the formation of multiple addition products, since addition of a thiol to the aromatic ring makes further oxidation and addition easier. Compound 1 was converted to 2 in the absence of exogenous oxidant at a rate of 0.011±0.002 min^−1 (FIG. 3D, grey line), which leads to approximately 50% conversion in one hour. ROS-induced activation of 1 was then assessed. In the presence of 10 mM H2O2, a ten-fold excess, the rate of conversion was enhanced by […] to 0.6±0.1 min^−1. Once 2 was formed, N-acetylcysteine was added and NAC-2 was rapidly produced (FIG. 3C, black line) as confirmed by FTMS (FIG. 3E).

MA9.3RAS AML cells = test: MTT cytotoxicity assay in MA9.3RAS AML cells; format: cell-based, human
Experimental: (§1) Cells were seeded at a density of 4×10^4 cells/well in a 96-well plate and incubated at 37° C. overnight. Then cells were treated for 48 hours with indicated concentrations of freshly dissolved compounds. The plates were centrifuged at 1500×g for 5 minutes at 4° C. to pellet the cells and the medium containing compounds was discarded; fresh medium containing 20 μL of MTT (5 mg/mL) was added to each well and incubated for an additional 4 h. The medium was removed. After adding 200 μL of DMSO to each well, the optical densities at 575 nm were determined. Cytotoxicity data are expressed as IC50 values obtained from the fit to a four parameter sigmoid using the graphing software KaleidaGraph (Synergy Software). All R^2 values were greater than 0.98 and standard errors of the three replicates were less than 20%.
Structural components within 1 were then probed to determine effect on potency. The goal was to obtain activity that matched the two natural products, PTL and PLG, which show efficacy in tumor xenografts in mice. As a model system cytotoxicity of synthesized agents in the MA9.3RAS AML cell line was examined. These cells are transformed CD34^+ human blood stem cells engineered to express both an MLL-AF9 fusion protein and the common oncogene NrasG12D. Culturing was accomplished as previously described by Wunderlich, et al., Leukemia 24(10):1785-88 (2010). The molecular signatures associated with these cells closely mimic those identified in primary AML patient samples and the MLL-fusion is associated with poor survival. Cytotoxicity studies were performed in triplicates using an MTT cell proliferation assay. All MTT assays were repeated twice.

[2] = system: CD34+ normal human blood stem cells vs MA9.3RAS AML cells; test: Selectivity factor: ratio of IC50 of normal cells over IC50 of AML cells; format: cell-based; settings: for selectivity factor (ratio of IC50 of normal cells over IC50 of AML cells): CD34+ normal human blood stem cells / MA9.3RAS AML cells
Excerpt: (§2) The selectivity of select compounds was examined by treatment of primary CD34^+ normal human blood stem cells. These are untransformed and are genetically similar to MA9.3RAS cells except they lack the MLL-AF9 oncogene and active Nras^G12D oncogene. It is essential that reactive agents be selective since off-target reactivity is of great concern. In anti-cancer compounds, a selectivity factor, which in this instance is the ratio between the IC50 of normal cells over the IC50 of the AML cells, of one log unit is desired. Compound 1 is marginally selective with a ratio of 2.0±0.2. […] Conversion of the aniline to an alkyl amine led to improved selectivity.

[3] = system: CD34+ selected human umbilical cord blood cells (UCB); test: MTT cytotoxicity assay in CD34+ selected umbilical cord blood cells (normal blood stem cells); format: cell-based; settings: for IC50: CD34+ selected human umbilical cord blood cells, 48 hours treatment, MTT, read-out: IC50 against UCB
Experimental: as §1, §2

[4] = Oxidation of compound 14, HPLC analysis; format: physicochemical
Experimental: These products were produced via both spontaneous and hydrogen-peroxide induced oxidation but not under an argon atmosphere (FIG. 4C right hand side). […] Importantly, addition of one molar equivalent hydrogen peroxide led to a near instantaneous conversion to the oxidized products. Using the lower limit of t1/2 less than 1 min leads to a large rate enhancement. Initially, the two products were isolated and a high-resolution MS was obtained on both. […] Several tautomers of 14-ox are possible (see FIG. 5A).

AML cells = test: Cellular ROS level by DCF fluorescence assay; format: cell-based
Experimental: Though it is widely accepted that bulk AML cells have elevated concentrations of reactive oxygen, it was desirable to ensure that the instant models had higher levels of ROS than healthy cells. CD34+ blood stem cells were harvested from three donors. Cells were counted, incubated with 2,7-dihydrodichlorofluorescein (DCF) diacetate, and their respective fluorescence compared after 30 min (FIG. 7). After deacylation, DCF is oxidized by a broad spectrum of ROS species and oxidases. Thus is a marker of general ROS and oxidation within cells. The three CD34+ selected UCB cell populations each derived from different healthy donors referred as #1 through #3 (FIG. 7) had fluorescence intensity of 0.69±0.03 (p<0.002), 0.60±0.03 (p<10^−6), 0.54±0.02 (p<10^−6) compared to 1.00±0.02 in the AML cell model.
In order for 14 to be ROS-activatable, it needs to enter a cell and react with hydrogen peroxide, thereby lowering a cell's total ROS level as measured by DCF fluorescence (FIG. 8A). It should be noted that because 14 is highly lethal, concentrations ten-fold higher than the IC50 are required to lower a cell's ROS level. […] Similar experiments lacking addition of 14 show statistically significant increases in fluorescence intensities (p<0.001 for all time points while pretreated data set was not statistically significant from each other) with the endpoint having an intensity of 5.02±0.08.

KEAP1 = test: Western blot against KEAP1 normalized to beta-actin; format: cell-based; settings: AML cells
Experimental: Finally, reactivity of 14 in a cell was examined (FIG. 8B). To accomplish this, western blot against KEAP1, normalized to beta-actin was performed. KEAP1 is a signaling molecule that inhibits NRF2^25, the transcription factor that regulates anti-oxidant concentrations in cells.

[5] = system: UT (healthy untransformed cells); test: IC50 panel, healthy untransformed cells; format: cell-based
Excerpt: (§3) Selectivity of compound 14 was examined by measuring IC50 against a variety of cell types, including AML cells obtained from individuals as well as common cell lines and healthy untransformed cells.

[6] = system: A_MA9 (Individual 1 transformed with MLL-AF9 fusion); test: IC50 panel, A_MA9; format: cell-based
Excerpt: as §3

[7] = system: A_MA9 + FLT3 (Individual 1 transformed with MLL-AF9 and FLT3-ITD); test: IC50 panel, A_MA9 + FLT3; format: cell-based
Excerpt: as §3

[8] = system: A_MA9 + Nras (Individual 1 transformed with MLL-AF9 and NrasG12D); test: IC50 panel, A_MA9 + Nras; format: cell-based
Excerpt: as §3

[9] = system: B_MA9 (Individual 2 transformed with MLL-AF9); test: IC50 panel, B_MA9; format: cell-based
Excerpt: as §3

[10] = system: B_MA9 + FLT3 (Individual 2 transformed with MLL-AF9 and FLT3-ITD); test: IC50 panel, B_MA9 + FLT3; format: cell-based
Excerpt: as §3

[11] = system: B_MA9 + Nras (Individual 2 transformed with MLL-AF9 and NrasG12D); test: IC50 panel, B_MA9 + Nras; format: cell-based
Excerpt: as §3

[12] = system: HL60 (common AML cell line); test: IC50 panel, HL60; format: cell-based; settings: Homo sapiens, HL-60
Excerpt: as §3

[13] = system: MOLM13 (common AML cell line); test: IC50 panel, MOLM13; format: cell-based; settings: Homo sapiens, MOLM-13
Excerpt: as §3

[14] = system: Kasumi1 (common AML cell line); test: IC50 panel, Kasumi1; format: cell-based; settings: Homo sapiens, Kasumi 1
Excerpt: as §3

[15] = Homo sapiens, MA9.3RAS AML cell line, MTT cell proliferation assay (Table 2 and text), read-out: IC50
[16] = Homo sapiens, MA9.3RAS, MA9.3 AML cells, MTT assay (Table 3), read-out: IC50

rate of conversion of 1 to 2 ([1]; PBS, absence of exogenous oxidant): 0.011 ± 0.002 min⁻¹
conversion of 1 to 2 in one hour ([1]; absence of exogenous oxidant): approximately 50%
rate of conversion of 1 to 2 ([1]; presence of 10 mM H2O2, ten-fold excess): 0.6 ± 0.1 min⁻¹
rate of conversion of 1 into 2 ([1]; with hydrogen peroxide (FIG. 3D legend)): 0.6 min⁻¹
Compound: CN(CC(=O)Nc1cc(O)ccc1O)c1ccccc1 [Compound 1]

Compound: CN(CC(=O)NC1=CC(=O)C=CC1=O)c1ccccc1 [Compound 2]
IC50 (MA9.3RAS AML cells; [15]): 21 ± 4 µM

Compound: COc1ccc(OC)c(NC(=O)CN(C)c2ccccc2)c1 [Compound 3]
IC50 (MA9.3RAS AML cells; [15]): > 100 µM

Compound: CN(CC(=O)Nc1ccccc1O)c1ccccc1 [Compound 4]
IC50 (MA9.3RAS AML cells; [15]): > 100 µM

Compound: CN(CC(=O)Nc1cccc(O)c1)c1ccccc1 [Compound 5]
IC50 (MA9.3RAS AML cells; [15]): > 100 µM

Compound: CC(=O)Nc1cc(O)ccc1O [Compound 6]
IC50 (MA9.3RAS AML cells; [15]): 35 ± 5 µM
selectivity factor (ratio of IC50 of normal cells over IC50 of AML cells) [2]: Neither compound 6 nor compound 7 were selective

Compound: NC1=CC(=O)C=CC1=O [Compound 7]
IC50 (MA9.3RAS AML cells; [15]): 16 ± 2 µM
selectivity factor (ratio of IC50 of normal cells over IC50 of AML cells) [2]: Neither compound 6 nor compound 7 were selective

Compound: O=C(CO)Nc1cc(O)ccc1O [Compound 8]
IC50 (MA9.3RAS AML cells; [15]): 12 ± 3 µM

Compound: O=C(CNc1ccccc1)Nc1cc(O)ccc1O [Compound 9]
IC50 (MA9.3RAS AML cells; [15]): 13 ± 2 µM

Compound: O=C(COc1ccccc1)Nc1cc(O)ccc1O [Compound 10]
selectivity factor (ratio of IC50 of normal cells over IC50 of AML cells) [2]: limited selectivity

Compound: O=C(CSc1ccccc1)Nc1cc(O)ccc1O [Compound 11]
selectivity factor (ratio of IC50 of normal cells over IC50 of AML cells) [2]: limited selectivity

Compound: CCCN(C)CC(=O)Nc1cc(O)ccc1O [Compound 12]
IC50 (MA9.3RAS AML cells; [15]): 18 ± 2 µM

activation by hydrogen peroxide [4]: more than 150 fold
time for complete conversion of 14 ([4]; hydrogen peroxide (FIG. 4C legend)): less than 0.1 hours
t1/2 of oxidation ([4]; normal atmosphere, pseudo-zero order kinetics): 2.58 ± 0.217 h
t1/2 of oxidation ([4]; one molar equivalent hydrogen peroxide): less than 1 min
fraction of 14 converted to its oxidation product ([4]; two hours under argon atmosphere): 4±3%
IC50 [6]: 4 ± 0.7 µM
IC50 [7]: 1.8 ± 0.07 µM
IC50 [8]: 2.3 ± 0.08 µM
IC50 [9]: 3.7 ± 0.1 µM
IC50 [10]: 1.6 ± 0.1 µM
IC50 [11]: 2.5 ± 0.03 µM
IC50 [12]: 4 µM
IC50 [13]: 6 ± 1 µM
IC50 [14]: 19 ± 3 µM
Compound: O=C(CNC1CCCCC1)Nc1cc(O)ccc1O [Compound 14, 2-(cyclohexylamino)-N-(2,5-dihydroxyphenyl)acetamide]
viability of AML cells, in words (MA9.3RAS AML cells; FIG. 6B): eradicated
IC50 (MA9.3RAS AML cells; [15]): 2 µM
IC50 [3]: 20 ± 2 µM
viability of normal blood stem cells, in words ([3]; concentration that eradicated AML cells, FIG. 6B): did not affect viability
selectivity ([2]; AML cells vs normal blood stem cells): 11 fold
cellular ROS levels (DCF fluorescence), in words (AML cells; 20 μM, AML cells): time dependent loss in cellular ROS levels
DCF fluorescence intensity at endpoint (AML cells; AML cells treated with 14, end of time course, without 14 5.02±0.08): 4.31±0.08
DCF fluorescence intensity at addition of 14 (AML cells; AML cells, start of time course): 1.06±0.13
KEAP1 level, in words (KEAP1; 2 μM): statistically significant reduction in KEAP1
relative concentration of KEAP1 (KEAP1 to ACTB) (KEAP1; after 24 hrs): 0.65±0.09
IC50 [5]: 22 ± 2 µM

Compound: Nc1ccc(O)c(NC(=O)CNC2CCCCC2)c1 [Compound 16, N-(5-amino-2-hydroxyphenyl)-2-(cyclohexylamino)acetamide]
IC50 (MA9.3RAS AML cells; Homo sapiens, MA9.3RAS, 48 hours treatment, MTT, read-out: IC50 against MA9.3RAS AML cells): 3 ± 1 µM
IC50 (MA9.3RAS AML cells; [16]): 5 ± 2 µM
IC50 [3]: 55 ± 4 µM

Compound: O=C(CNC1CCCCC1)Nc1cc([N+](=O)[O-])ccc1O [Compound 17]
IC50 (MA9.3RAS AML cells; [16]): 22 ± 7 µM

Compound: C[C@@H](NC1CCCCC1)C(=O)Nc1cc(O)ccc1O [Compound 18]
IC50 (MA9.3RAS AML cells; [16]): 104 ± 2 µM

Compound: O=C(Nc1cc(O)ccc1O)C(NC1CCCCC1)C1CCCCC1 (stereo not shown) [Compound 19]
IC50 (MA9.3RAS AML cells; [16]): 107 ± 1 µM

Compound: COc1cc(/C=C/C(=O)N2CCC=CC2=O)cc(OC)c1OC [PLG, piperlongumine, reference compound]
IC50 (MA9.3RAS AML cells; [15]): 2 ± 1 µM
selectivity factor (ratio of IC50 of normal cells over IC50 of AML cells) [2]: 3.7±1

Compound: parthenolide [PTL, reference compound]
IC50 (MA9.3RAS AML cells; MA9.3RAS AML cell line, MTT cell proliferation assay (Table 2 and text), read-out: IC50): 3 ± 1 µM
selectivity factor (ratio of IC50 of normal cells over IC50 of AML cells) [2]: 2.1±0.4
